According to PubChem BioAssay AID179 (DTP/NCI, 2004):
Active and inactive are the calls of the source.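 The calls were made as follows: active = compounds giving half or more protection of infected cells from virus-caused growth loss, again on retest; inactive = the rest.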 Where a SMILES comes first, the peptide text is derived from it. [ ]: non-standard residue; d: D form. The star is where a group is joined. ξ: configuration not given here. Bz = O=C(c1ccccc1)*; Bn = c1ccc(C*)cc1; ξC = NC(CS)C(=O)O

Test system: CEM cells HIV-1 protection, formazan growth assay
Experiment: NCI AIDS Antiviral Assay
Conditions: for IC50: measured here: growth of uninfected CEM cells
Method in brief: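 Protection of CEM cells against HIV-1 measured as cell growth via soluble formazan read-out, with five concentrations tested on both infected and uninfected cells; failure to protect may reflect toxicity.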

| SMILES | EC50 [µM] | IC50 [µM] | outcome |
| --- | --- | --- | --- |
| O=C(O)C(C(F)(F)F)C(F)(F)F (tested in a mixture with another compound) | > 200 | > 200 |  |
| Cc1ccc(S(=O)(=O)/C(C#N)=C/NS(=S)c2ccncc2)cc1 (stereo not drawn) |  |  | inactive |
| Cn1c(=O)nc2n(-c3ccc(Br)cc3)c3ccccc3nc-2c1=O |  |  | inactive |
| COc1ccc(C2=C/C(=C3\C(=O)Oc4ccccc4C3=O)SS2)cc1 | > 200 | > 200 |  |
| O=c1c2ccccc2c2nccc3c4ccccc4n1c32 | > 37.2 | > 37.2 |  |
| O=c1cc(-c2ccccc2)oc2cccc(O)c12 | > 200 | > 200 |  |
| O=C1CCC(N2C(=O)C3CCCCC3C2=O)C(=O)N1 (stereo not drawn) | > 200 | > 200 |  |
| O=C(O)CN(c1cccc(Cl)c1)S(=O)(=O)c1ccccc1 |  |  | inactive |
| C=CCOC1=C(OC(C)=O)C(C2COC(C)(C)O2)OC1=O (stereo not drawn) | > 200 | 16.2 |  |
| O=C1c2ccc3cc(CCl)cc(O)c3c2C(=O)c2cccc(O)c21 | > 200 | 5.25 |  |
| CCN(CC)C(=S)SS(=O)(=O)c1ccccc1C(=O)O | > 200 | 112 |  |
| CS(=O)(=O)C(C#N)c1nc2ccccc2nc1Cl (stereo not drawn) | > 200 | > 200 |  |
| C=CCO/N=C(\OC(=O)c1ccc([N+](=O)[O-])cc1)c1ccccc1 | > 151 | > 151 |  |
| Cc1ccc(NC(=O)CCc2cc(C(C)(C)C)nc(=S)[nH]2)cc1C | > 724 | 398 |  |
| Cc1ccc(N=N/C(=N/NC(=O)c2cc(Cl)ccc2C(=O)c2ccccc2)c2ccc(N(CCC#N)CCC#N)cc2C)cc1 | > 200 | 11.7 |  |
| CC1CN=C(Cc2ccc(NC(=O)c3ccc(C(=O)Nc4ccc(CC5=NCC(C)N5)cc4)cc3)cc2)N1 (stereo not drawn) | > 200 | 110 |  |
| c1ccc2c(c1)CCN2CCc1c[nH]c2ccccc12 | > 200 | 178 |  |
| O=C1C[C@@H]2[C@@H](c3ccccc3)[C@@H]3C(=O)c4ccccc4NC(=O)[C@H]3[C@]2(O)c2ccccc2N1 | 26.9 | 30.9 |  |
| O=C(NN1C(=O)C(Cl)C1c1cccc([N+](=O)[O-])c1)c1ccccc1O (stereo not drawn) | > 27.5 | > 27.5 |  |
| O=S1(=O)O[C@H]2CCCC[C@@H]2O1 | > 45.7 | > 45.7 |  |
| O=C1NC(=O)C2(CCN(Cc3ccccc3)CC2)N1c1ccccc1 | > 200 | > 200 |  |
| N#Cc1ccc(OCc2nc3cc(C(F)(F)F)ccc3nc2-c2ccccc2)cc1 | > 200 | 30.2 |  |

| SMILES | EC50 [µM] | IC50 [µM] | outcome |
| --- | --- | --- | --- |
| C/C(CC(=O)Nc1cccc(C)c1C)=N\NC(N)=S | > 468 | 245 |  |
| CC1CCCC2(O1)OC1CC(=O)OC1C1=C2C(=O)c2ccccc2C1=O (stereo not drawn) | > 87.1 | 0.417 |  |
| O=C1/C(=C/c2ccccc2)CN(C(=O)C(Cl)(Cl)Cl)C/C1=C\c1ccccc1 |  |  | inactive |
| CSC1=N/C(=C\c2ccc(C)cc2)C(=O)N1CN1CCOCC1 | > 200 | 34.7 |  |
| S=C(Nc1cccc2ccccc12)NN1CCCCCC1 | > 17.4 | > 17.4 |  |
| O=C(/C(=C1\SS/C(=C(/C(=O)c2ccccc2)c2ccccc2)S1)c1ccccc1)c1ccccc1 | > 200 | > 200 |  |
| O=C1C(=O)N(c2cc(Cl)ccc2Cl)C(=O)C(=O)C1c1nc2ccccc2s1 |  |  | inactive |
| Cc1c2c(n3c(nc4ccccc43)c1C#N)NCC2 | > 200 | > 200 |  |
| CC1(C)CC(C)(C)CC(O)(C2(O)CC(C)(C)CC(C)(C)C2)C1 | > 8.71 | > 8.71 |  |
| CC(=O)C=O |  |  | inactive |
| CC(=O)Nc1ccc(-c2nnc(SCC(=O)Nc3ccccc3Cl)o2)cc1 | > 46.8 | > 46.8 |  |
| Nc1ccc2c(c1)C1=NNC(=O)CC1C2 (stereo not drawn) |  |  | inactive |
| NC(=O)C(NCc1ccccc1)c1ccccc1 (stereo not drawn) | > 200 | > 200 |  |
| CC(C)(C)C1COP(=O)(OCc2ccccc2)OC1 (stereo not drawn) | > 631 | > 631 |  |
| O=c1oc(-c2ccccc2NS(=O)(=O)c2ccccc2)nc2cc(Cl)ccc12 | > 200 | 1.45 |  |
| NC(=O)c1nnn(Cc2cc(Cl)c(C(=O)c3ccc(Cl)cc3)c(Cl)c2)c1N | > 200 |  |  |
| CCCCCCCCCCCCSS(=O)(=O)c1ccccc1 | > 75.9 | > 75.9 |  |
| COc1cc(Nc2nc3ccccc3nc2-c2cccs2)cc(OC)c1OC | > 25.1 | 21.9 |  |
| CNCC(=O)c1ccc(O)c(O)c1 | > 200 | > 200 |  |
| CC(C)[C@](O)(C(=O)OCC1CCN2CC[C@@H](O)C12)[C@H](C)O (stereo partly drawn) | > 200 | > 200 |  |
| CCOC(=O)/C(=C/c1cc(OC)ccc1OC)P(=O)(OCC)OCC | > 676 | 316 |  |
| CCOC(=O)/C(=C\c1cccc([N+](=O)[O-])c1)C(C)=O |  |  | inactive |

| SMILES | EC50 [µM] | IC50 [µM] | outcome |
| --- | --- | --- | --- |
| CN(C)C1=c2c(=O)n(C)c(=O)n(C)c2=NC2C=CC=CN12 (stereo not drawn) | > 174 | > 174 |  |
| Nn1c(-c2ccccc2)nc2ccc(Br)cc2c1=O |  |  | inactive |
| COc1ccc(-c2nc(N)c(C#N)c3c2CCSc2ccc(C)cc2-3)cc1OC | > 200 | 11.7 |  |
| CC(=O)O/N=C1\C=Cc2c(no[n+]2[O-])C1=O | > 200 | 18.2 |  |
| CC(C)OCC(O)COc1ccc2ccc(=O)oc2c1 (stereo not drawn) | > 200 | > 200 |  |
| O=C(CNC(=O)c1ccccc1)NC(CSCc1ccccc1)C(=O)O (stereo not drawn) (Bz-Gly-[ξC](Bn)-OH) | > 676 | 550 |  |
| CC(C)(Oc1ccc(C(=O)c2ccc(Cl)cc2)cc1Cl)C(=O)N1CCN(CCO)CC1 | > 200 | 4.47 |  |
| O=C1C(I)=CC(=C(c2cc(I)c(O)c(I)c2)c2ccccc2C(=O)O)C=C1I |  |  | inactive |
| CC1OC(OC2C(CO)OC(O[C@H]3CC[C@@]4(C)C(=CC[C@H]5[C@@H]6C[C@@H]7O[C@]8(CC[C@@H](C)CN8)[C@@H](C)[C@@H]7[C@@]6(C)CC[C@@H]54)C3)C(O)C2O)C(O)C(O)C1O (stereo partly drawn) |  |  | inactive |
| CCOC(=O)C(=Cc1cccc(F)c1)C(=O)OCC | > 355 | 22.4 |  |
| O=C1C(=C/C=C2/SC(c3ccccc3)(c3ccccc3)c3ccccc32)C(=O)c2ccccc21 | > 200 | > 200 |  |
| CSc1c(C#N)c(N)n(-c2ccc(C)cc2)c(=O)c1C#N | > 83.2 | 74.1 |  |
| COc1cccc2c(=O)c3ccccc3oc12 | > 200 | > 200 |  |
| CC1(C)c2ccccc2-c2nc3ccccc3c3c2C1OC3=O (stereo not drawn) | > 832 | > 832 |  |
| C=C1CN(S(=O)(=O)c2ccc([N+](=O)[O-])cc2)CC(=C)CN(S(=O)(=O)c2ccc([N+](=O)[O-])cc2)CC(=C)CN(S(=O)(=O)c2ccc([N+](=O)[O-])cc2)C1 | > 100 | > 100 |  |
| CC(C)N(C(=O)C12C3C4C5(C(=O)O)C(C1C35I)C42C(=O)O)C(C)C (stereo not drawn) | > 562 | > 562 |  |
| C=C1C(=O)OC2/C=C(\C)CC(O)/C=C(/CO)CC(OC(=O)/C(C)=C/C)C12 (stereo not drawn) | > 100 | 53.7 |  |
| Cc1nc2[nH]ncn2c(=O)c1CCO | > 200 | > 200 |  |
| N#CCCCCn1cnc2c(N)ncnc21 | > 200 | > 200 |  |
| COc1ccc(I)c(CCC(C(=O)O)C2=CCC3(CC2)OCCO3)c1 (stereo not drawn) | > 145 | > 145 |  |
| CC(=O)OC1/C=C(\C)C(OC(C)=O)C/C=C(/C)CCC2C(/C=C/C1=O)C2(C)C (stereo not drawn) | > 66.1 | > 66.1 |  |
